The source of these data is ChEMBL document CHEMBL1201862, “PubChem BioAssay data set” (2004).

Targets include Cytochrome P450 2C9 (Homo sapiens, UniProt P11712); Cytochrome P450 3A4 (Homo sapiens, UniProt P08684); Cytochrome P450 2D6 (Homo sapiens, UniProt P10635).
The next data set concerns the target T1, Cytochrome P450 1A2 (Homo sapiens, UniProt P05177).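 Also: PubChem cytochrome P450 panel assay, CYP1A2 panel member.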
T1 sequence (P05177 whole entry): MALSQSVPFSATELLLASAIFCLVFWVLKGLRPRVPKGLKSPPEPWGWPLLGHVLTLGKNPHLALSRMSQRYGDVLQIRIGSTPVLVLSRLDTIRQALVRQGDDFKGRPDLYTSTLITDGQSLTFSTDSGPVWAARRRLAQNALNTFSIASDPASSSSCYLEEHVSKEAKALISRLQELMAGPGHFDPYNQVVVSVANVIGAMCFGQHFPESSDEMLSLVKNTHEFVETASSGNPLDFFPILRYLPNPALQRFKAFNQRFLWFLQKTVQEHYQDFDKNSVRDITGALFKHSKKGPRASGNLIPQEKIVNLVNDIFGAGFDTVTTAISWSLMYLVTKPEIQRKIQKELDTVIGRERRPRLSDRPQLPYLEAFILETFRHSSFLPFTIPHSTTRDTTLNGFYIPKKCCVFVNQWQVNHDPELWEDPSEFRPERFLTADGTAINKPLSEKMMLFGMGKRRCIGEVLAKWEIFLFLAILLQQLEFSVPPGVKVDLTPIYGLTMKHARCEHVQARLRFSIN

For data set [1], the target named is T2, Calpain-2 catalytic subunit (Sus scrofa, UniProt P43367).
T2 sequence (P43367 whole entry): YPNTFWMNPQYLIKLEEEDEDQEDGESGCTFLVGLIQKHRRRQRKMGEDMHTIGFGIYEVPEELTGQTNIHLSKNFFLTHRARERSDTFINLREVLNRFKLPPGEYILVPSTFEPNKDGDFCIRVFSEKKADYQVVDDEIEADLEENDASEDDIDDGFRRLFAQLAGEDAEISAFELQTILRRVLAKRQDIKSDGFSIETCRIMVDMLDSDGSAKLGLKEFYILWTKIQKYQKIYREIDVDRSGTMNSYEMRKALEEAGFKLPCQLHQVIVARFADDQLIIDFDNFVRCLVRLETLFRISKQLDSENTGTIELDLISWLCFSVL
The data set is described as follows: m-calpain protease blockers, concentration series – biochemical, fluorogenic peptide substrate, dose response (AID 1420). The format is functional.

For data set [2], the target named is T3, Polyadenylate-binding protein 1 (Homo sapiens, UniProt P11940). Briefly: MLLE binding blockers, Cy5 peptide tracer – biochemical, fluorescence polarization, Cy5-PAM2 peptide, secondary, miRNA deadenylation inhibitor project, dose response (AID 602260). Format: functional. The settings on record: read-out: IC50_Mean.
The target of data set [3] is T3, Polyadenylate-binding protein 1. The data set is described as follows: MLLE domain peptide-binding blockers, IC50 – biochemical, fluorescence polarization, FITC-PAM2 peptide, dose response (AID 602259). Format: functional. As to conditions: read-out: IC50_Mean. (In general: Fluorescence polarisation rises when a labelled molecule tumbles more slowly, as on binding a larger partner.)

A further data set concerns the target T4, Protein skinhead-1 (Caenorhabditis elegans, UniProt P34707).
T4 sequence (P34707 whole entry): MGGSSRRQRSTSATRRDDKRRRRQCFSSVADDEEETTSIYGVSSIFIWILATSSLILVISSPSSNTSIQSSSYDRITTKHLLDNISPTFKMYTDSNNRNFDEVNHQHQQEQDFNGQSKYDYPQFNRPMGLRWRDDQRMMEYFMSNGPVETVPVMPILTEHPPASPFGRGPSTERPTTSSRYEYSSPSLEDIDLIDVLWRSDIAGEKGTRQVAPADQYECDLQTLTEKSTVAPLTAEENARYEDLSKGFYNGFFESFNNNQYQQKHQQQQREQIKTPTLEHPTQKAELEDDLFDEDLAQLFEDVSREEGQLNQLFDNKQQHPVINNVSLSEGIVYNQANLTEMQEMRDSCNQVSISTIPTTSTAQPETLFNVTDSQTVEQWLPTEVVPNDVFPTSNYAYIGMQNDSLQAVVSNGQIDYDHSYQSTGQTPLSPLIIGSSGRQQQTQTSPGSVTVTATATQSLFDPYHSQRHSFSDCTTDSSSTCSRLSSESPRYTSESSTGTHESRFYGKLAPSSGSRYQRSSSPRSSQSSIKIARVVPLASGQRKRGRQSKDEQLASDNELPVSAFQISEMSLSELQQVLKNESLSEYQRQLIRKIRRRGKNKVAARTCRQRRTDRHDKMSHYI
The format is functional.

In data set [4] the target is T5, Short transient receptor potential channel 4 (Mus musculus, UniProt Q9QUQ5).
T5 sequence (Q9QUQ5 whole entry): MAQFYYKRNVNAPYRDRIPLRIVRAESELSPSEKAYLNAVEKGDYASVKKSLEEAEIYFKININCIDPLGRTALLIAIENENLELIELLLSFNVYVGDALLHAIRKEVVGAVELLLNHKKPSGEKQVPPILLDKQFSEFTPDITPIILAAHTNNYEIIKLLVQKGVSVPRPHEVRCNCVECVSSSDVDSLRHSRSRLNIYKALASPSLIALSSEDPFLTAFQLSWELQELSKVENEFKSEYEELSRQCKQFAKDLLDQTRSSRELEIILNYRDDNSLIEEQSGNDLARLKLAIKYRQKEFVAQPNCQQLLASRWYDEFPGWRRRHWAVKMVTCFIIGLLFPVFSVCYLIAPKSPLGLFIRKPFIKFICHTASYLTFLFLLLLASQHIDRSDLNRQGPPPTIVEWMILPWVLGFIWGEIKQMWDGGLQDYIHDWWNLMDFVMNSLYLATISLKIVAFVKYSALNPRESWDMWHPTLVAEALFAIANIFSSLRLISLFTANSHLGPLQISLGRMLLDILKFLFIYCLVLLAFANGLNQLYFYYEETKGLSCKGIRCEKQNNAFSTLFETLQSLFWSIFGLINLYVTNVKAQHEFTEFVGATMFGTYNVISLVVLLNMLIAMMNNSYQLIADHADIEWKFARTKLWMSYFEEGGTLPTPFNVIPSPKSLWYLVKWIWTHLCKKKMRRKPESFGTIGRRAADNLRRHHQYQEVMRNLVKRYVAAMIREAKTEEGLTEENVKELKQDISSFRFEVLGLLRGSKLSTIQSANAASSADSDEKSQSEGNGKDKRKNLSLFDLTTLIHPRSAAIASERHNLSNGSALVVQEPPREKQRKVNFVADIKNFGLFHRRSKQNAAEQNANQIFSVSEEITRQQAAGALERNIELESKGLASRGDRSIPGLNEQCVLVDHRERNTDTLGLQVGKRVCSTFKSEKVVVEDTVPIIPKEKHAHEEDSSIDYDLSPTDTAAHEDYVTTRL
Briefly: block of DAMGO-driven TRPC4 calcium entry – cell-based, HEK293 TRPC4/mu-opioid, Fluo-4 calcium, dose response (AID 434942).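 Also: potency of inhibitors blocking the TRPC4 calcium response.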 The format is functional.

Another data set has as its target Cytochrome P450 2C19 (Homo sapiens, UniProt P33261). The data set is described as follows: Cytochrome panel assay with activity outcomes. Panel member name: p450-cyp2c19 Compounds with AC50 equal or less than 10 uM are considered active. The format is functional.
Data set [5] can be described thus: THP-1 cell cytotoxicity, dose response, cytotoxicity control for non-replicating M. tuberculosis project (AID 489025). Format: functional.
The nature of data set [6]: Vero E6 cell cytotoxicity, dose response, cytotoxicity control for non-replicating M. tuberculosis project, secondary assay (AID 492998). The format is functional, VeroE6. As to conditions: Vero C1008.
The nature of a further data set: cells. The format is functional.
The target in data set [7] is Luciferin 4-monooxygenase (Photinus pyralis, UniProt P08659). The data set is described as follows: inhibition of purified Photinus pyralis luciferase – biochemical, luminescence, dose response (AID 1891).
The nature of data set [8]: Luminescence Cell-Based Dose Confirmation HTS to Identify Inhibitors of Platelet Dense Granule Release. [Related pubchem assays: 1663 (Primary HTS), 1678 (Summary of Project)]. The format is functional.
For data set [9], the target named is Heat shock protein HSP 90-alpha (Homo sapiens, UniProt P07900). The format is functional, organism-based.
Another data set concerns INS1. Briefly: INS-1E survival protection against cytokine death – cell-based, luminescence, retest, dose response (AID 449756).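 Also: cell death triggered by IL-1 beta plus TNF-alpha plus IFN-gamma mixture; protective hits raise ATP signal compared with cytokine alone wells.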 As to conditions: Rattus norvegicus. Format: functional.
In a further data set the test system is Vero. The data set is described as follows: cells. Format: functional. As to conditions: Chlorocebus sabaeus.
Data set [10] can be described thus: A549 cell cytotoxicity, dose response, cytotoxicity control, plate reader, cherry-pick, antagonist series (AID 743412). Format: functional, cell-based.
Data set [11] in a line: toxicity toward HepG2 liver cells – cell-based, plate reader, cherry-pick, antagonist series, cytotoxicity control, dose response (AID 743416). Format: functional.
The nature of data set [12]: blockers of bursicon-stimulated LGR2 cAMP reporter – cell-based, HEK293, CRE-luciferase reporter, cherry pick, set 2, dose response (AID 743343).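 Also: transfected cells were stimulated with diluted bursicon conditioned medium after compound addition.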 The format is functional. (Reporter assays use an easily measured gene product as a stand-in for the process of interest.)
Data set [13] is described as follows: blockade of melanocortin 4 receptor signaling – cell-based, plate reader, cherry pick, counter-screen for LGR2 antagonist project, dose response (AID 743444).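 Also: transfected HEK 293 cells stimulated with alpha-MSH peptide; potency of inhibitors of the alpha-MSH evoked signal.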 The format is functional. In general terms: The purpose of a counterscreen is to sort out artefacts and off-target activity.
A short description of data set [14]: viability loss in HEK293 cells – cell-based, plate reader, cherry-picked samples, cytotoxicity control, dose response (AID 743446). The format is functional.

The structures appear in SMILES notation. Values joined by “and” are separate entries in the source; they are usually repeats but may differ in a detail not shown here. Equal values may be shown once. Active and inactive are the calls of the source. Bounds are passed on as bounds.

Cytochrome P450 2C9, sequence (P11712 whole entry): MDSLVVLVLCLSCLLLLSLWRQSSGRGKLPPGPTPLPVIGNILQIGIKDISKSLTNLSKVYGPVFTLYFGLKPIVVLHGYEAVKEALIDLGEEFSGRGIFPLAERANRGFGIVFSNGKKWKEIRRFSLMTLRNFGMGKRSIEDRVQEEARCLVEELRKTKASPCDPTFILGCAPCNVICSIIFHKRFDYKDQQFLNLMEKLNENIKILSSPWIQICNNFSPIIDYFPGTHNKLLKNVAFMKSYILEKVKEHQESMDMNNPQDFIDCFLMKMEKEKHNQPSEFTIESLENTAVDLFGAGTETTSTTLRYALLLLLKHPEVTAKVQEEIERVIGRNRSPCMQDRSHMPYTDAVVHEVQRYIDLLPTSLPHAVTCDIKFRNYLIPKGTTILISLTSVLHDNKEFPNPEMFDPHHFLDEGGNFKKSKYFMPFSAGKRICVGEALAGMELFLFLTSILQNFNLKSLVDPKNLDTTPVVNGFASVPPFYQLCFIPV
T3 sequence (P11940 whole entry, the tested form may be a part): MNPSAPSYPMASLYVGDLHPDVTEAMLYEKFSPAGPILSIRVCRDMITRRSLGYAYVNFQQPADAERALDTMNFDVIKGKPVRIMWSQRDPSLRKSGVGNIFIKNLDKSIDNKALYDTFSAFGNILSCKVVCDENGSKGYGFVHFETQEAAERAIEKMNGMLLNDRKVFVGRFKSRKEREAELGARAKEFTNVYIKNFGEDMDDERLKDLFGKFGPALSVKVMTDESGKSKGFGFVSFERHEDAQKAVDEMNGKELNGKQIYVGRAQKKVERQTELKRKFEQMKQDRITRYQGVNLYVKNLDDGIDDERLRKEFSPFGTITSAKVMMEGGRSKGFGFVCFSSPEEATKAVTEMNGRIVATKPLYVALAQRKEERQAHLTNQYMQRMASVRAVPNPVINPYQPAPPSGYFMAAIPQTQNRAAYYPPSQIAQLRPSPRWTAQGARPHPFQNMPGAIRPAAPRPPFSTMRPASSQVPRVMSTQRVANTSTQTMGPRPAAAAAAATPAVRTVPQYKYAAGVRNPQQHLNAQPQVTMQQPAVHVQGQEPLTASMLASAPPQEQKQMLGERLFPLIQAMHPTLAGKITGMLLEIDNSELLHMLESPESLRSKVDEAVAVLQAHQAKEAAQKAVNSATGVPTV
Cytochrome P450 2C19, sequence (P33261 whole entry): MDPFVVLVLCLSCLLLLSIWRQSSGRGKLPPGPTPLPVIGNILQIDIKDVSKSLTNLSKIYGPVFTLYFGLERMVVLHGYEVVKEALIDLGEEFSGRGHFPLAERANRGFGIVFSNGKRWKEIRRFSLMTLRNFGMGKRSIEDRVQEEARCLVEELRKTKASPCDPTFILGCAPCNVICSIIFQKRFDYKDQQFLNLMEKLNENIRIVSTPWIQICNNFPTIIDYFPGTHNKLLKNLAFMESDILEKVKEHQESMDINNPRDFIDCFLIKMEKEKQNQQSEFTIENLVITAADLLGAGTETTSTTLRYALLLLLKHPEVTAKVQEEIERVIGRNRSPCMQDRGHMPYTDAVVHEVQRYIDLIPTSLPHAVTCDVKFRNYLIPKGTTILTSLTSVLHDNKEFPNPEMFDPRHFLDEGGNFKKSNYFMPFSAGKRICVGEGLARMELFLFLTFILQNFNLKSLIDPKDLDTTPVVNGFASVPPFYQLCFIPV
Luciferin 4-monooxygenase, sequence (P08659 whole entry): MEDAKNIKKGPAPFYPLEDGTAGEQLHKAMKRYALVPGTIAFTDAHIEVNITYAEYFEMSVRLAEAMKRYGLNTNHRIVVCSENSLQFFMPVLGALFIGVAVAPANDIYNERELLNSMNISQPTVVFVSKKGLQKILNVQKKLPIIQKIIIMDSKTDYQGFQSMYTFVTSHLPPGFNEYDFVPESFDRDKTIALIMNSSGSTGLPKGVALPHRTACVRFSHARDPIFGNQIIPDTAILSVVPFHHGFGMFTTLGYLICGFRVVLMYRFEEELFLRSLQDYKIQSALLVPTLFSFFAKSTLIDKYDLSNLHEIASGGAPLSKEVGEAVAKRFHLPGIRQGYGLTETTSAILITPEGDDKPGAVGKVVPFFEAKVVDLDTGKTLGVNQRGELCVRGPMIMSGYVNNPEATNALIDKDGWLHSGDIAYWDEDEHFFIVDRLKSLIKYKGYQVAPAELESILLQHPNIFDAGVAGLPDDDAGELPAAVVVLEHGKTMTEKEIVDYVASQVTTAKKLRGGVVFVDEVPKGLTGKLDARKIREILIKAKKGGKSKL
Cytochrome P450 3A4, sequence (P08684 whole entry): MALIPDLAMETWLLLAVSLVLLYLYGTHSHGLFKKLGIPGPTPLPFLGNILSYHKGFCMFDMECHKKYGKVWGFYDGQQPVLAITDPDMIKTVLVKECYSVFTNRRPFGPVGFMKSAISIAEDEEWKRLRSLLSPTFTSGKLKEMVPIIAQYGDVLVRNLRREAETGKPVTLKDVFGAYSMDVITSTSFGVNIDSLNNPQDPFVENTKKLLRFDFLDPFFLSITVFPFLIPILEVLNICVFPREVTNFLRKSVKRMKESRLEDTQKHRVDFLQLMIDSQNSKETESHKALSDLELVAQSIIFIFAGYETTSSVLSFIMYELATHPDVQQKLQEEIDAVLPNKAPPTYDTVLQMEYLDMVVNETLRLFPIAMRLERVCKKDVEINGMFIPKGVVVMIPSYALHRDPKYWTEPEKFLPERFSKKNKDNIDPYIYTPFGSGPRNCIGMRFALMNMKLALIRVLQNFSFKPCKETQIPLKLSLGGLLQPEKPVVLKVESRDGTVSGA
Cytochrome P450 2D6, sequence (P10635 whole entry): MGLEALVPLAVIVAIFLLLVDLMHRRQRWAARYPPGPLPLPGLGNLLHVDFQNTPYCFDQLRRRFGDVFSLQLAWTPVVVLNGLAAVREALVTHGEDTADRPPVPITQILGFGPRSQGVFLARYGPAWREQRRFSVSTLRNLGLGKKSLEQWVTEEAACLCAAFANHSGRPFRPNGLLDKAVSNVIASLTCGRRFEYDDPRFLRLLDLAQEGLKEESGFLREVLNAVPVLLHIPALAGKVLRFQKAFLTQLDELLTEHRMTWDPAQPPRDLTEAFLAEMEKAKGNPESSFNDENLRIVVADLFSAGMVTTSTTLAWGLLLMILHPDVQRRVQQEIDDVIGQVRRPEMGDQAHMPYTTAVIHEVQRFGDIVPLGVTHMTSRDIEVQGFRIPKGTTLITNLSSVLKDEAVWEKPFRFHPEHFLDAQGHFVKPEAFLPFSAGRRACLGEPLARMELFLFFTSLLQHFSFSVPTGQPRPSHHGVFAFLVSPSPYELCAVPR

The term AC50 denotes the concentration at which the activity in the assay is half-maximal. On to `Cc1ccccc1C(=O)Nc1ccc(N2CCOCC2)nc1`, for which the AC50 was 17.8 µM (inconclusive) on Cytochrome P450 1A2 and “inconclusive” at Cytochrome P450 2C9.

On to `Cc1c(C#N)c(=O)oc2ccc3ccccc3c12`, for which, on Cytochrome P450 2C9, the AC50 result was “inconclusive”.

For the compound `CCc1ccc(CNCc2cccnc2)cc1`, the IC50 in data set [1] was 0.454 µM (not active).

As for `CC(C)CN1CCCC2(CCN(C(=O)c3ccco3)CC2)C1`, the AC50 on Cytochrome P450 3A4 is 31.6 µM (inconclusive); at Cytochrome P450 2C9, “inconclusive”.

On to `O=C(CNC(=O)C12CC3CC(CC(C3)C1)C2)NC1=NCCS1`, for which the IC50 in data set [2] and in data set [3] was > 66 µM (inactive) in each case.

As for `CCOC(=O)C(CSCC(=O)c1ccc(Cl)cc1Cl)NC(=O)OC(C)(C)C` (stereo not drawn), the IC50 in data set [2] was > 66 µM (inactive); in data set [3], > 66 µM (inactive); on Protein skinhead-1, > 100 µM (inactive).

For orientation: EC50 means the concentration at which the effect is half-maximal. Regarding `CCOC(=O)c1c(NC(=O)C2CC(Cl)=CCC2C(=O)O)sc2c1CCCCC2` (stereo not drawn), in data set [4], the EC50 is 6.68 µM (active).

Turning to `CC[n+]1c(/C=C(/C)SC)sc2ccccc21`, the IC50 in data set [2] and in data set [3] was > 66 µM (inactive) in each case.

For the compound `Cc1cc(SC(C)C(=O)Nc2c(C)n(C)n(-c3ccccc3)c2=O)nc2ccccc12` (stereo not drawn), the AC50 at Cytochrome P450 2C19 (read-out: AC50) is 11.2 µM (inconclusive); at Cytochrome P450 2C9, “inconclusive”.

With `O=C(NC(=S)NCCC1=CCCCC1)c1ccccc1Br`, the IC50 in data set [2] and in data set [3] was > 66 µM (inactive) each time.

What is called CC50 is the concentration at which the toxic effect on the cells reaches its halfway point. Regarding `CN(Cc1ccccc1)C(=O)c1ccc([N+](=O)[O-])o1`, the CC50 in data set [5] is > 40 µM (active); in data set [6], 19.4 µM (active). Further, the IC50 in the data set “cells” was 360 nM (active).

As for `O=C(NN1C(=O)c2ccccc2NC1c1ccco1)c1ccc([N+](=O)[O-])cc1` (stereo not drawn), the IC50 in [1] is 10.6 µM (not active).

Take `Cc1cc(C)c2c(N=NN3CCOCC3)[nH]nc2n1`: the EC50 in [7] and in data set [8] was > 112 µM (not active) throughout. In addition, in data set [9], the AC50 was 4.4 µM (active).

`Cc1cc(NC(=O)c2ccccc2Cl)c(C(C)C)cc1O`: the AC50 entry on Cytochrome P450 2C9 is given as “inconclusive”.

With `Cc1ccc2nc(NC(=O)c3ccccn3)sc2c1`, the values for the CC50 (in data set [5]; in [6]; in the data set with Vero) were 10.7 µM (active), 7.23 µM (active) and 11.3 µM (active), respectively. The IC50 in the data set “cells” was 630 nM (active). Further, the AC50 is 2.19 µM (active) in the data set with INS1; 4.99 µM (active) in data set [10]; 9.65 µM (active) in [11]; 737 nM (active) in [12]; 582 nM (active) in [13]; 14 µM (active) in data set [14].

In the case of `Cc1ccccc1C(=O)NC1CC2CCC(C1)N2Cc1ccccc1` (stereo not drawn), the EC50 in data set [4] is 0.188 µM (active).

For the compound `Cc1c(Cl)c(S(N)(=O)=O)cc2c1N=CNS2(=O)=O`, the AC50 on Cytochrome P450 2D6 is 3.98 µM (inconclusive); at Cytochrome P450 2C9, “inconclusive”.

For the compound `COc1ccc(/C=N/NC(=O)C2c3ccccc3Oc3ccccc32)c(OC)c1`, in [1], the IC50 is recorded as 10.9 µM (not active).

For `CN(C)CCCN1c2ccccc2CCc2ccc(Cl)cc21` [CLOMIPRAMINE], the AC50 entry at Cytochrome P450 2C19 was “inactive”; on Cytochrome P450 1A2 it was 15.8 µM (active) and 5.01 µM (active) and 20 µM (inconclusive); on Cytochrome P450 2C9 it was “inactive”.
